Among the targets are Carbonic anhydrase 9 (Homo sapiens, UniProt Q16790); Carbonic anhydrase 1 (Homo sapiens, UniProt P00915); Carbonic anhydrase 2 (Homo sapiens, UniProt P00918); Carbonic anhydrase 12 (Homo sapiens, UniProt O43570).
[1] abbreviates: tested as the Zn salt or complex.

Each structure is given as a SMILES string.

For orientation: Ki means the dissociation constant of the complex between target and ligand, obtained from inhibition or displacement.

Chain of Carbonic anhydrase 12 (O43570 whole entry): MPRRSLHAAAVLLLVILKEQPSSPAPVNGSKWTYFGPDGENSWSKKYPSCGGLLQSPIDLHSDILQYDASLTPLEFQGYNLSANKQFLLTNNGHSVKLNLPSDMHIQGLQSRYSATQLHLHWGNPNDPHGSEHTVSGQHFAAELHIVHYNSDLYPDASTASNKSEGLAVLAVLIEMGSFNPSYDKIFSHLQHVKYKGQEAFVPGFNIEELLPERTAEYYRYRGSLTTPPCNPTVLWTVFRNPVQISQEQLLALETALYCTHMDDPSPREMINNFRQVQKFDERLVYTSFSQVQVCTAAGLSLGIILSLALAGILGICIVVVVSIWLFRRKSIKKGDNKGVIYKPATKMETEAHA
Chain of Carbonic anhydrase 1 (P00915 whole entry): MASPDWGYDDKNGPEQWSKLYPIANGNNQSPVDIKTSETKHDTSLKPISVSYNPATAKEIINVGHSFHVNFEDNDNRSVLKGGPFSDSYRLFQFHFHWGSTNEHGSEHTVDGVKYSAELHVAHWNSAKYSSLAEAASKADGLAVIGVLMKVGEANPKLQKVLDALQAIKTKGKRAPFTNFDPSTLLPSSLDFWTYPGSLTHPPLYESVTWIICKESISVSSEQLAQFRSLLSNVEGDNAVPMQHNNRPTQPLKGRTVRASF
Description for Carbonic anhydrase 12: Inhibition constant against human carbonic anhydrase XII
Description for Carbonic anhydrase 2: Inhibition constant against human carbonic anhydrase II
Description for Carbonic anhydrase 9: Inhibition constant against human carbonic anhydrase IX

For `Cc1ccc2occ(/C=N/c3ccc(S(=O)(=O)N=C(N)N)cc3)c(=O)c2c1`, the Ki at Carbonic anhydrase 9, on Carbonic anhydrase 1, on Carbonic anhydrase 2 and on Carbonic anhydrase 12 was over 1000 nM in each case.

`Cc1ccc2occ(/C=N/c3cc(C(F)(F)F)c(S(N)(=O)=O)cc3S(N)(=O)=O)c(=O)c2c1` registered a Ki at Carbonic anhydrase 9 of 32 nM.

Compound `Cc1ccc2occ(/C=N/CCc3ccc(S(N)(=O)=O)cc3)c(=O)c2c1` [listing 1 of 2 here] gave a Ki at Carbonic anhydrase 9 of 37 nM.

As to `NS(=O)(=O)c1ccc(C/N=C/c2coc3ccccc3c2=O)cc1`, the affinity on Carbonic anhydrase 9, expressed as Ki, was 32 nM.

Take `Cc1ccc2occ(/C=N/c3ccc(S(N)(=O)=O)cc3)c(=O)c2c1` [listing 1 of 2 here]: the Ki on Carbonic anhydrase 9 (setting [1]) came to 6.8 nM.

Regarding `Cc1ccc2occ(/C=N/CCc3ccc(S(N)(=O)=O)cc3)c(=O)c2c1` [listing 2 of 2 here], the Ki at Carbonic anhydrase 9 (setting [1]) was 8.2 nM.

With `NS(=O)(=O)c1ccc(NCc2coc3ccccc3c2=O)cc1`, on Carbonic anhydrase 9 (setting [1]), the Ki is 10 nM.

Consider `NS(=O)(=O)c1ccc(CNCc2coc3ccccc3c2=O)cc1`, for which the Ki on Carbonic anhydrase 9 (setting [1]) was found to be 8.1 nM.

In the case of `NS(=O)(=O)c1ccc(CCNCc2coc3ccccc3c2=O)cc1`, the Ki at Carbonic anhydrase 9 (setting [1]) is 7.3 nM.

Take `Cc1ccc2occ(CNc3ccc(S(N)(=O)=O)cc3)c(=O)c2c1`: the Ki at Carbonic anhydrase 9 (setting [1]) is 15 nM.

Take `Cc1ccc2occ(CNCc3ccc(S(N)(=O)=O)cc3)c(=O)c2c1`: at Carbonic anhydrase 9 (setting [1]), the Ki stood at 14 nM.

For the compound `Cc1ccc2occ(CNCCc3ccc(S(N)(=O)=O)cc3)c(=O)c2c1`, the Ki at Carbonic anhydrase 9 (setting [1]) was 12 nM.

`N=C(N)NS(=O)(=O)c1ccc(/N=C/c2coc3ccccc3c2=O)cc1`: the Ki on Carbonic anhydrase 9, at Carbonic anhydrase 1, on Carbonic anhydrase 2 and on Carbonic anhydrase 12 was over 1000 nM in each case.

Turning to `NS(=O)(=O)c1ccc(CC/N=C/c2coc3ccccc3c2=O)cc1`, the affinity at Carbonic anhydrase 9 corresponds to a Ki of 26 nM.

In the case of `Cc1ccc2occ(/C=N/c3ccc(S(N)(=O)=O)cc3)c(=O)c2c1` [listing 2 of 2 here], the Ki at Carbonic anhydrase 9 stood at 48 nM.

For the compound `NS(=O)(=O)c1ccc(C/N=C/c2coc3ccccc3c2=O)cc1` (stereo in doubt; 20), the Ki at Carbonic anhydrase 9 (setting [1]) is over 1000 nM.

For the compound `NS(=O)(=O)c1ccc(C/N=C/c2coc3ccccc3c2=O)cc1` (stereo in doubt; 21), the Ki at Carbonic anhydrase 9 (setting [1]) is 6.3 nM.

Values taken from ChEMBL document CHEMBL1139568, “Carbonic anhydrase inhibitors. Inhibition of cytosolic/tumor-associated carbonic anhydrase isozymes I, II, IX, and XII with Schiff's bases incorporating chromone and aromatic sulfonamide moieties, and their zinc complexes” (Bioorg Med Chem Lett, 2005).
